This passage reports Activity and IC50 results from ChEMBL document CHEMBL1146418, “A new flavone C-glycoside and antiplatelet and vasorelaxing flavones from Gentiana arisanensis” (J Nat Prod, 1997).

Assay [1] concerns Platelet. In words: Inhibition of thrombin-induced platelet aggregation in rabbit plasma at 300 uM preincubated 3 mins before addition of thrombin by turbidimetric method. The class given is functional, Oryctolagus cuniculus. Also on record: scale not given: the % may be the effect or the level left.
For assay [2], the system named is Platelet. The assay can be described thus: Inhibition of arachidonic acid-induced platelet aggregation in rabbit plasma at 300 uM preincubated 3 mins before addition of thrombin by turbidimetric method. The assay is classed as functional, Oryctolagus cuniculus. Also on record: scale not given: the % may be the effect or the level left.
Assay [3] has as its system Platelet. In words: Inhibition of collagen-induced platelet aggregation in rabbit plasma at 300 uM preincubated 3 mins before addition of thrombin by turbidimetric method. The class given is functional, Oryctolagus cuniculus. On the set-up: scale not given: the % may be the effect or the level left.
The subject of assay [4] is Platelet. The assay can be described thus: Inhibition of platelet activating factor-induced platelet aggregation in rabbit plasma at 300 uM preincubated 3 mins before addition of thrombin by turbidimetric method. The class given is functional, Oryctolagus cuniculus. On the set-up: scale not given: the % may be the effect or the level left.
For assay [5], the system named is Aorta. In words: Inhibition of noradrenaline-induced Wistar rat thoracic aorta phasic contraction in high K+ medium at 150 uM pretreated 15 mins before addition of Ca2+ and K+ relative to control. The assay is classed as functional. On the set-up: scale not given: the % may be the effect or the level left.
Assay [6] has as its system Aorta. The assay can be described thus: Inhibition of Ca2+-induced Wistar rat thoracic aorta contraction at 150 uM in high K+ medium pretreated 15 mins before addition of Ca2+ and K+ relative to control. The class given is functional. On the set-up: scale not given: the % may be the effect or the level left.
The subject of assay [7] is Aorta. The assay can be described thus: Inhibition of noradrenaline-induced Wistar rat thoracic aorta tonic contraction in high K+ medium at 150 uM pretreated 15 mins before addition of Ca2+ and K+ relative to control. The assay is classed as functional. Also on record: scale not given: the % may be the effect or the level left.
Assay [8] has as its system Aorta. The assay can be described thus: Inhibition of noradrenaline-induced Wistar rat thoracic aorta phasic contraction in high K+ medium at 9 uM pretreated 15 mins before addition of Ca2+ and K+ relative to control. On the set-up: scale not given: the % may be the effect or the level left. The class given is functional.
In assay [9] the test system is Aorta. In words: Inhibition of Ca2+-induced Wistar rat thoracic aorta contraction in high K+ medium pretreated 15 mins before addition of Ca2+ and K+.
The test system of assay [10] is Platelet. In words: Inhibition of arachidonic acid-induced platelet aggregation in rabbit plasma at 150 uM preincubated 3 mins before addition of thrombin by turbidimetric method. The assay is classed as functional, Oryctolagus cuniculus. On the set-up: scale not given: the % may be the effect or the level left.
The test system of assay [11] is Aorta. In words: Inhibition of noradrenaline-induced Wistar rat thoracic aorta phasic contraction in high K+ medium at 300 uM pretreated 15 mins before addition of Ca2+ and K+ relative to control. The assay is classed as functional. Also on record: scale not given: the % may be the effect or the level left.
Assay [12] has as its system Aorta. In words: Inhibition of noradrenaline-induced Wistar rat thoracic aorta tonic contraction in high K+ medium pretreated 15 mins before addition of Ca2+ and K+ relative to control.
Assay [13] relates to Aorta. The assay can be described thus: Inhibition of noradrenaline-induced Wistar rat thoracic aorta tonic contraction in high K+ medium at 9 uM pretreated 15 mins before addition of Ca2+ and K+ relative to control. The class given is functional. On the set-up: scale not given: the % may be the effect or the level left.
Assay [14] deals with Aorta. In words: Inhibition of Ca2+-induced Wistar rat thoracic aorta contraction at 300 uM in high K+ medium pretreated 15 mins before addition of Ca2+ and K+ relative to control. The assay is classed as functional. Also on record: scale not given: the % may be the effect or the level left.
For assay [15], the system named is Aorta. The assay can be described thus: Inhibition of noradrenaline-induced Wistar rat thoracic aorta tonic contraction in high K+ medium at 30 uM pretreated 15 mins before addition of Ca2+ and K+ relative to control. The class given is functional. Also on record: scale not given: the % may be the effect or the level left.
The subject of assay [16] is Aorta. In words: Inhibition of noradrenaline-induced Wistar rat thoracic aorta tonic contraction in high K+ medium at 90 uM pretreated 15 mins before addition of Ca2+ and K+ relative to control. The class given is functional. On the set-up: scale not given: the % may be the effect or the level left.
Assay [17] has as its system Aorta. The assay can be described thus: Inhibition of noradrenaline-induced Wistar rat thoracic aorta tonic contraction in high K+ medium at 300 uM pretreated 15 mins before addition of Ca2+ and K+ relative to control. The class given is functional. Also on record: scale not given: the % may be the effect or the level left.
For assay [18], the system named is Aorta. In words: Inhibition of Ca2+-induced Wistar rat thoracic aorta contraction at 30 uM in high K+ medium pretreated 15 mins before addition of Ca2+ and K+ relative to control. The class given is functional. On the set-up: scale not given: the % may be the effect or the level left.
In assay [19] the test system is Platelet. The assay can be described thus: Inhibition of arachidonic acid-induced platelet aggregation in rabbit plasma preincubated 3 mins before addition of thrombin by turbidimetric method. The settings on record: Oryctolagus cuniculus.
Assay [20] relates to Platelet. In words: Inhibition of arachidonic acid-induced platelet aggregation in rabbit plasma at 15 uM preincubated 3 mins before addition of thrombin by turbidimetric method. The assay is classed as functional, Oryctolagus cuniculus. Also on record: scale not given: the % may be the effect or the level left.
Assay [21] deals with Platelet. The assay can be described thus: Inhibition of arachidonic acid-induced platelet aggregation in rabbit plasma at 30 uM preincubated 3 mins before addition of thrombin by turbidimetric method. The class given is functional, Oryctolagus cuniculus. On the set-up: scale not given: the % may be the effect or the level left.
Assay [22] concerns Platelet. The assay can be described thus: Inhibition of arachidonic acid-induced platelet aggregation in rabbit plasma at 60 uM preincubated 3 mins before addition of thrombin by turbidimetric method. The class given is functional, Oryctolagus cuniculus. On the set-up: scale not given: the % may be the effect or the level left.
For assay [23], the system named is Aorta. The assay can be described thus: Inhibition of Ca2+-induced Wistar rat thoracic aorta contraction at 90 uM in high K+ medium pretreated 15 mins before addition of Ca2+ and K+ relative to control. On the set-up: scale not given: the % may be the effect or the level left. The assay is classed as functional.
Assay [24] concerns Aorta. The assay can be described thus: Inhibition of noradrenaline-induced Wistar rat thoracic aorta phasic contraction in high K+ medium at 30 uM pretreated 15 mins before addition of Ca2+ and K+ relative to control. The class given is functional. Also on record: scale not given: the % may be the effect or the level left.
Assay [25] relates to Aorta. In words: Inhibition of noradrenaline-induced Wistar rat thoracic aorta phasic contraction in high K+ medium pretreated 15 mins before addition of Ca2+ and K+ relative to control.
Assay [26] concerns Aorta. The assay can be described thus: Inhibition of noradrenaline-induced Wistar rat thoracic aorta phasic contraction in high K+ medium at 90 uM pretreated 15 mins before addition of Ca2+ and K+ relative to control. The class given is functional. On the set-up: scale not given: the % may be the effect or the level left.
Assay [27] relates to Platelet. In words: Inhibition of collagen-induced platelet aggregation in rabbit plasma at 100 uM preincubated 3 mins before addition of thrombin by turbidimetric method. The class given is functional, Oryctolagus cuniculus. On the set-up: scale not given: the % may be the effect or the level left.
The subject of assay [28] is Platelet. In words: Inhibition of arachidonic acid-induced platelet aggregation in rabbit plasma at 100 uM preincubated 3 mins before addition of thrombin by turbidimetric method. The assay is classed as functional, Oryctolagus cuniculus. On the set-up: scale not given: the % may be the effect or the level left.
For assay [29], the system named is Platelet. The assay can be described thus: Inhibition of thrombin-induced platelet aggregation in rabbit plasma at 50 uM preincubated 3 mins before addition of thrombin by turbidimetric method. On the set-up: scale not given: the % may be the effect or the level left. The class given is functional, Oryctolagus cuniculus.
For assay [30], the system named is Platelet. In words: Inhibition of platelet activating factor-induced platelet aggregation in rabbit plasma at 50 uM preincubated 3 mins before addition of thrombin by turbidimetric method. The class given is functional, Oryctolagus cuniculus. Also on record: scale not given: the % may be the effect or the level left.
Assay [31] relates to Platelet. The assay can be described thus: Inhibition of collagen-induced platelet aggregation in rabbit plasma at 50 uM preincubated 3 mins before addition of thrombin by turbidimetric method. The class given is functional, Oryctolagus cuniculus. On the set-up: scale not given: the % may be the effect or the level left.
For assay [32], the system named is Platelet. The assay can be described thus: Inhibition of arachidonic acid-induced platelet aggregation in rabbit plasma at 50 uM preincubated 3 mins before addition of thrombin by turbidimetric method. On the set-up: scale not given: the % may be the effect or the level left. The class given is functional, Oryctolagus cuniculus.

Regarding `O=c1cc(-c2ccc(O)cc2)oc2cc(O)c([C@@H]3O[C@H](CO[C@@H]4O[C@H](CO)[C@@H](O)[C@H](O)[C@H]4O)[C@@H](O)[C@H](O)[C@H]3O)c(O)c12`, the Activity turned out to be 87.4% in assay [1], 84.9% in [2], 85.6% in assay [3] and 84.6% in assay [4].

Regarding `O=c1cc(-c2ccc(O)cc2)oc2cc(O)c([C@@H]3O[C@H](CO)[C@@H](O)[C@H](O)[C@H]3O)c(O)c12` [ISOVITEXIN], the Activity was 36.5% in [1], 85.1% in [2], 84.7% in [3] and 83.9% in assay [4].

For `O=c1cc(-c2ccc(O)c(O)c2)oc2cc(O[C@@H]3O[C@H](CO)[C@@H](O)[C@H](O)[C@H]3O)cc(O)c12` [GALUTEOLIN], the Activity in [1] worked out at 87%; in assay [2] it was 80.2%; in assay [3], 80.5%; in assay [4] it was 71.9%; in [5], 84.5%; in assay [6], 93.4%. For the same compound, the Activity in [7] came out at 88.2%.

The IC50 is the concentration that gives 50% inhibition. As to `O=c1cc(-c2ccc(O)c(O)c2)oc2cc(O)cc(O)c12` [LUTEOLIN], the Activity in assay [8] was determined as 92.8%; in assay [10] it was 0%; in assay [11], 14.9%; in assay [1] it was 34.7%; in [13], 99.2%; in assay [14] it was 28.6%. Also, the Activity in assay [15] came to 52.3%; in assay [16], 32.6%; in [17] it was 22.9%; in assay [18] it was 69.5%; in [20], 79.2%; in [21] it was 53%. For the same compound, the Activity in assay [2] stood at 0%; in assay [3], 2.8%; in assay [22], 20.5%; in assay [4], 53%; in assay [23] it was 49.9%; in [24] it was 64.7%. Further, in assay [26], the Activity was found to be 29.3%. In addition, the IC50 in assay [9] was 156 µM; in assay [12], 72 µM; in assay [19], 43.5 µM; in assay [25], 68 µM.

For `CC(=O)OC[C@H]1O[C@@H](c2c(OC(C)=O)cc3oc(-c4ccc(OC(C)=O)c(OC(C)=O)c4)cc(=O)c3c2OC(C)=O)[C@H](OC(C)=O)[C@@H](OC(C)=O)[C@@H]1OC(C)=O` [ISOORIENTIN PERACETATE], the Activity in assay [1] came out at 79%; in assay [2], 72.4%; in assay [3], 68.6%; in [4], 74.7%.

Regarding `O=c1cc(-c2ccc(O)c(O)c2)oc2cc(O)c([C@@H]3O[C@H](CO)[C@@H](O)[C@H](O)[C@H]3O)c(O)c12` [ISOORIENTIN], the Activity in assay [1] was found to be 85.5%; in [2], 66.9%; in assay [3], 60.8%; in assay [4], 77.1%; in assay [5], 91.7%; in [6], 106%. The Activity in assay [7] stood at 86.6%.

As to `CC(=O)OC[C@H]1O[C@@H](OC[C@H]2O[C@@H](c3c(OC(C)=O)cc4oc(-c5ccc(OC(C)=O)c(OC(C)=O)c5)cc(=O)c4c3OC(C)=O)[C@H](OC(C)=O)[C@@H](OC(C)=O)[C@@H]2OC(C)=O)[C@H](OC(C)=O)[C@@H](OC(C)=O)[C@@H]1OC(C)=O`, the Activity turned out to be 80.5% in assay [27] and 79.9% in assay [28].

For the compound `CC(=O)Oc1ccccc1C(=O)O` [ASPIRIN], the Activity in assay [29] was determined as 91.9%; in assay [30], 90.5%; in [31], 85.4%; in assay [32], 0%.

Consider `O=c1cc(-c2ccc(O)c(O)c2)oc2cc(O)c([C@@H]3O[C@H](CO[C@@H]4O[C@H](CO)[C@@H](O)[C@H](O)[C@H]4O)[C@@H](O)[C@H](O)[C@H]3O)c(O)c12`, for which the Activity in [1] stood at 85.7%; in assay [2], 83.3%; in assay [3], 85.4%; in [4], 83.5%.
